Laboratory results reported in patent US20210317102A1, “INHIBITORS OF INTEGRATED STRESS RESPONSE PATHWAY” (Praxis Biotech LLC, priority 2019, published 2021).

How the values were obtained:
CHO cells = experiment: Protein secretion in a CHO cell-based assay; settings: 1 μM compound 10, media without FBS, 24 h, vs vehicle
Method: CHO cells were maintained at 37° C. and 5% CO2 in DMEM supplemented with 10% fetal bovine serum (FBS), 2 mM L-glutamine, 100 U/ml penicillin, and 100 μg/ml streptomycin. After reaching 80% of confluence, cells were detached and seeded on 6-well plates in complete media, allowed to recover for 48 h. Cells were then washed three times with PBS and treated with compound 10 at […] in 1 mL of media without FBS for 24 h. Treatment with 0.1% DMSO was used as control (vehicle). After 24 h treatment, supernatant (SN) which contains secreted proteins was extracted and protease and phosphatase inhibitors (Roche) were added to each sample. SN were centrifuged at 2,000 g for 10 min to discard any cellular debris and 900 μL SN were transferred to empty microtubes with 400 μL methanol by mixing well. 200 μL of chloroform was added to the mix and then samples were centrifuged at 14,000 g for 2 minutes. Top aqueous layer was discarded by pipetting off and 400 μL methanol is added to each sample by mixing well. Samples were then centrifuged at 17,000 g for 8 minutes and methanol was discarded by pipetting off without disturbing the protein pellet. […] Secreted proteins were analyzed by SDS-PAGE and Coomassie staining. […] Percentage was calculated as the percent relative to protein secretion levels from CHO cells treated with vehicle which correspond to 100%.

ARH cells = experiment: Secretion of Ig-kappa by ARH cells; type: cell-based; settings: 1 µM of compound 10 for 24 hours, vs vehicle (0.1% DMSO)
Method: ARH cells were maintained at 37° C. and 5% CO2 and seeded at a density of 500,000 cell/well in RPMI supplemented with, 100 U/ml penicillin, and 100 μg/ml streptomycin in a 12-well culture plate. Cells were treated either with vehicle (0.1% DMSO) or […] of compound 10 for 24 hours. Then, culture media with cells were recovered in microtubes and centrifuged at 500 g for 5 minutes. Supernatants (SN) which contain secreted proteins were extracted and protease and phosphatase inhibitors (Roche) were added to each sample. SN were centrifuged at 2,000 g for 10 min to discard any cellular debris and 900 μL SN were transferred to empty microtubes with 400 μL methanol by mixing well. 200 μL of chloroform was added to the mix and then samples were centrifuged at 14,000 g for 2 minutes. Top aqueous layer was discarded by pipetting off and 400 μL methanol was added to each sample by mixing well. Samples were then centrifuged at 17,000 g for 8 minutes and methanol was discarded by pipetting off without disturbing the protein pellet. […] Quantification of protein bands was done by densitometry using ImageJ software.
Percent of secreted Ig kappa light chain by ARH cells treated with vehicle or compound 10 from three independent experiments is shown in FIG. 4. Percentage was calculated as the percent relative to Ig kappa secretion levels from ARH cells treated with vehicle which correspond to 100%.

SMILES: O=C(COc1ccc(Cl)c(F)c1)N[C@H]1CC[C@H](CNC(=O)c2ccc3cc(Cl)ccc3n2)CC1 [Compound 10, trans-6-chloro-N-((4-(2-(4-chloro-3-fluorophenoxy)acetamido)cyclohexyl)methyl)quinoline-2-carboxamide]
- Secretion of proteins in CHO cells (CHO cells): increased secretion of proteins
- Secretion of Ig kappa light chain (ARH cells): increased the secretion of the immunoglobulin light chain kappa
